One compound from paper PMC2877376 (Journal of biomolecular screening, 2009) can be followed below.

In this assay the test system is E. coli K-12 sulA-gfp (strain SS996). Kind of assay: RecA-dependent SOS activation, sulA-gfp reporter. The format is cell-based, Escherichia coli. To be noted: ciprofloxacin only, 90 min, 37 °C; untreated bacteria 0.76.

Turning to `O=C(O)c1cn(C2CC2)c2cc(N3CCNCC3)c(F)cc2c1=O` [ciprofloxacin], the “relative GFP expression (GFP/DAPI intensity ratio)” value is reported as 0.87.
